pIC50: −log10 of the molar value. Counter-ions that a name gives are not always drawn.
Molecular target: T1, SPHK-1 (Homo sapiens, UniProt Q9NYA1)
T1 construct: purchased BPS Bioscience
Assay: Reporter Assay: sphingosine kinase conversion of fluorescein-labeled sphingosine, read on Lab Chip 3000
Assay type: biochemical
Conditions: 2 μM Fl-sphingosine, 25 μM ATP, 300 ng/ml SK1, 1 hour at room temperature; from percent conversion of substrate to product; read-out: SPHK-1 IC50 (n =)
Procedure: Sphingosine kinase is a 49 kDa enzyme that catalyzes the formation of sphingosine-1-phosphate (S-1-P) from sphingosine.
Fluorescein labeled sphingosine was obtained from Echelon Biosciences (S-100F). Buffer reagents (1 M Hepes, 10 triton x-100, 100% glycerol, dithiothreitol 1 M MgCl2, ATP, 500 mM EDTA and DMSO) were purchased from Sigma. Coating reagent (CR-3), was obtained from Caliper Life Sciences.
0.05% Triton X-100, 2.5% glycerol, 0.1% CR-3, and 0,6% DMSO. Termination butler included 100 mM Hepes (pH 7.5), 40 mM EDTA, 0.05% Triton X-100, 2.5% glycerol, 0.3% CR-3, and 0.6% DMSO.
All assay components were made in reaction buffer. […] The assaylvas allowed to incubate at room temperature sealed and protected from light for 1 hour.
After 1 hour, 10 μl of termination buffer was added to terminate, the reaction, and the plate was read on a Lab Chip 3000. The plate was read for one cycle. The Lab Chip separated substrate and product based on charge.
Results were calculated based on percent conversion of substrate to product using the following formula: […]
Percent inhibition and IC50's for compounds of the invention were determined using the percent conversion values obtained horn the Lab Chip.

T1 sequence (Q9NYA1 whole entry): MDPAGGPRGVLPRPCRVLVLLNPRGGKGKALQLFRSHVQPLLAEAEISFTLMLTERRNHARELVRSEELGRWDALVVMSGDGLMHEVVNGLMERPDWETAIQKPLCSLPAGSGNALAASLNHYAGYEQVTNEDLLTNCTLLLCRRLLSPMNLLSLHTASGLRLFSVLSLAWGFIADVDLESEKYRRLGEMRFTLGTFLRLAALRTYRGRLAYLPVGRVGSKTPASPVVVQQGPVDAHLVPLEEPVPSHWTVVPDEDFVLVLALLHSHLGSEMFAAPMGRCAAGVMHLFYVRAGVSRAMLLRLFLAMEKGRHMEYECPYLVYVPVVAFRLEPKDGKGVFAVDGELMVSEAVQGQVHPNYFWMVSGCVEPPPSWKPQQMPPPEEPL

| pIC50 | Structure (SMILES) |
| --- | --- |
| < 6.00 | CCCCCCCCc1ccc(NC(=O)[C@H]([C@H](C)O)N(CCC)CCC)cc1 [Example 47, (2S,3S)-2-(dipropyl-amino)-3-hydroxy-N-(4-octylphenyl) butanamide] |
| 5.42 | CCCCCCCCCc1ccc(NC(=O)C(N)CO)cc1 (racemic) [Example 13, (+/−)-2-Amino-3-hydroxy-N-(4-nonylphenyl) propanamide] |
| 5.28 | O=C(NCc1ccc2oc(CCCOc3ccc(F)cc3)cc2c1)[C@H]1NCC[C@@H]1O [Example 110, (2S,3S)—N-((2-(3-(4-Fluorophenoxy)propyl)benzofuran-5-yl)methyl)-3-hydroxypyrrolidine-2-carboxamide] |
| 5.80 | CCCCCCCCc1ccc(NC(=O)[C@H](N)[C@@H](C)O)cc1 [Example 31, (2R,3R)-2-Amino-3-hydroxy-N-(4-octylphenyl) butanamide] |
| 5.33 | O=C(NCc1ccc(CCCCCOc2ccc(F)cc2)cc1)[C@H]1NCC[C@@H]1O [Example 28, (2S,3S)-N-(4-(5-(4-Fluorophenoxy)pentyl)benzyl)-3-hydroxy-pyrrolidine-2-carboxamide] |
| 5.68 | CCCCCCCCc1ccc(CNC(=O)[C@H]2NCC[C@@H]2O)cc1 [Example 36, (2S,3S)-3-hydroxy-N-(4-octylbenzyl) pyrrolidine-2-carboxamide] |
| 5.30 | CCCCCCCCc1ccc(NC[C@@H](N)CO)cc1 [Example 10, (R)-2-Amino-3-(4-octylphenyl-amino) propan-1-ol] |
| 7.19 | O=C(NCc1ccc(-n2cc(CCc3ccccc3)cn2)cc1)[C@H]1NCC[C@@H]1O [Example 69, (2S,3S)-3-Hydroxy-N-(4-(4-phenethyl-1H-pyrazol-1-yl)benzyl)pyrrolidine-2-carboxamide] |
| 6.66 | CCCCCCCc1ccc(-c2noc(CNC(=O)[C@H]3NCC[C@@H]3O)n2)cc1 [Example 77, (2S,3S)—N-((3-(4-Heptylphenyl)-1,2,4-oxadiazol-5-yl)methyl)-3-hydroxypyrrolidine-2-carboxamide] |
| 5.54 | CCCCCCCCc1cccc(NC(=O)[C@@H](N)[C@@H](C)O)c1 [Example 11, (2S,3R)-2-Amino-3-hydroxy-N-(3-octylphenyl) butanamide] |
| 5.57 | CCCCCCCc1noc(-c2ccc(CNC(=O)[C@@H]3C[C@@H](O)CCN3)cc2)n1 [Example 102, (2S,4S)—N-(4-(3-heptyl-1,2,4-oxadiazol-5-yl)benzyl)-4-hydroxypiperidine-2-carboxamide] |
| 6.29 | CCCCCCCCc1cc2c(F)c(CNC(=O)[C@H]3NCC[C@@H]3O)ccc2o1 [Example 121, (2S,3S)—N-((4-Fluoro-2-octylbenzofuran-5-yl)methyl)-3-hydroxypyrrolidine-2-carboxamide] |
| 5.16 | CCCCCCC(O)CCCc1ccc(NC(=O)[C@@H](N)[C@@H](C)O)cc1 (stereo partly drawn) [Example 35, (2S,3R)-2-amino-3-hydroxy-N-(4-(4-hydroxydecyl)phenyl) butanamide] |
| 5.52 | CCCCCCCCc1ccc(NC(=O)[C@H]2NCC[C@@H]2O)cn1 [Example 26, (2S,3S)-3-Hydroxy-N-(6-octylpyridin-3-yl) pyrrolidine-2-carboxamide] |
| 7.22 | CCCCCCCc1nc(-c2ccc3c(c2)CC[C@@H]3NC(=O)[C@H]2NCC[C@@H]2O)no1 [Example 62, (2S,3S)—N—((S)-5-(5-heptyl-1,2,3-oxadiazol-3-yl)-2,3-dihydro-1H-inden-1-yl)-3-hydroxypyrrolidine-2-carboxamide] |
| 5.37 | CCCCCCCCc1ccc(NC(=O)[C@@H](N)CO)cc1 [Example 4, (S)-2-Amino-3-hydroxy-N-(4-octylphenyl) propanamide] |
| 6.89 | CC[C@H](NC(=O)[C@H]1NCC[C@@H]1O)c1ccc(-c2noc(C3CCCCC3)n2)cc1 [Example 99, (2S,3S)—N—((S)-1-(4-(5-Cyclohexyl-1,2,4-oxadiazol-3-yl)phenyl)propyl)-3-hydroxypyrrolidine-2-carboxamide hemi-tartrate salt] |

| pIC50 | Structure (SMILES) |
| --- | --- |
| 5.36 | CC(C)Cc1ccc(-c2nc(-c3ccc(CNC(=O)[C@H]4NCC[C@@H]4O)cc3)no2)cc1 [Example 78, (2S,3S)-3-Hydroxy-N-(4-(5-(4-isobutylphenyl)-1,2,4-oxadiazol-3-yl)benzyl)pyrrolidine-2-carboxamide] |
| 6.34 | CCCCCCCCc1cc2cc(CNC(=O)[C@H]3NCC[C@@H]3O)cc(F)c2o1 [Example 118, (2S,3S)—N-((7-Fluoro-2-octylbenzofuran-5-yl)methyl)-3-hydroxypyrrolidine-2-carboxamide] |
| 6.43 | O=C(Nc1ccc(CCCCCCCOc2ccc(F)cc2)cc1)[C@H]1NCC[C@@H]1O [Example 25, (2S,3S)-N-(4-(7-(4-Fluorophenoxy)heptyl)phenyl)-3-hydroxy-pyrrolidine-2-carboxamide] |
| 5.40 | CCCCCCCCc1ccc(NC(=O)[C@@H](N)CCCCO)cc1 [Example 52, (S)-2-Amino-6-hydroxy-N-(4-octylphenyl) hexanamide] |
| 5.57 | CCCCCCCCCCc1ccc(NC(=O)[C@@H]2C[C@@H](O)CCN2)cc1 [Example 124, (2S,4S)—N-(4-decylphenyl)-4-hydroxypiperidine-2-carboxamide] |
| 5.96 | CCCCCCCCc1ccc(NC(=O)[C@@H](N)[C@H](C)O)cc1 [Example 32, (2S,3S)-2-Amino-3-hydroxy-N-(4-octylphenyl) butanamide] |
| 5.82 | O=C(Nc1ccc(CCCOc2ccc(F)cc2)cc1)[C@H]1NCC[C@@H]1O [Example 23, (2S,3S)-N-(4-(3-(4-Fluorophenoxy)propyl)phenyl)-3-hydroxy-pyrrolidine-2-carboxamide] |
| 6.96 | CCCCCCSCc1ccc(NC(=O)[C@H]2NCC[C@@H]2O)cc1 [Example 39, (2S,3S)-N-(4-(hexylthiomethyl)phenyl)-3-hydroxy-pyrrolidine-2-carboxamide] |
| 7.07 | CCCCC(=O)CCCCCc1ccc(NC(=O)[C@H]2NCC[C@@H]2O)cc1 [Example 38, (2S,3S)-3-hydroxy-N-(4-(6-oxodecyl)phenyl) pyrrolidine-2-carboxamide] |
| 6.22 | CCCCCCCc1nc(-c2ccc(CNC(=O)[C@@H](N)CCO)cc2)no1 [Example 83, (S)-2-Amino-N-(4-(5-heptyl-1,2,4-oxadiazol-3-yl)benzyl)-4-hydroxybutanamide] |
| 5.16 | CCCCCCCc1nc(-c2ccc3c(c2)CC[C@H]3NC(=O)[C@H]2NCC[C@@H]2O)no1 [Example 61] |
| 5.55 | CCCCCCCCc1ccc(NC(=O)[C@H](CO)NC)cc1 [Example 51, (S)-3-Hydroxy-2-(methylamino)-N-(4-octylphenyl) propanamide] |
| 6.96 | CCCCCCCCCCCc1ccc(NC(=O)[C@@H](N)[C@@H](C)O)cc1 [Example 7, (2S,3R)-2-Amino-3-hydroxy-N-(4-undecylphenyl) butanamide] |
| 5.19 | CCCCCCCCc1ccc(CCNC(=O)[C@H]2NCC[C@@H]2O)cc1 [Example 44, (2S,3S)-3-hydroxy-N-(4-octylphenethyl) pyrrolidine-2-carboxamide] |
| 5.68 | CCCCCCCCc1ccc(NC(=O)[C@H](N)[C@H](C)O)cc1 [Example 30, (2R,3S)-2-Amino-3-hydroxy-N-(4-octylphenyl) butanamide] |
| 5.30 | O=C(NCc1ccc2oc(CCOc3ccc(F)cc3)cc2c1)[C@H]1NCC[C@@H]1O [Example 111, (2S,3S)—N-((2-(2-(4-Fluorophenoxy)ethyl)benzofuran-5-yl)methyl)-3-hydroxypyrrolidine-2-carboxamide] |

From patent US20110275673A1, “INHIBITORS OF SPHINGOSINE KINASE 1” (priority 2008, published 2011)
